Assay results: PubChem BioAssay AID2060358 (Molecular Pharmacology Branch, DTP, NCI, 2025)
pIC50: −log10 of the molar value. Activity calls are given as the source filed them. How the source made its calls: active means viability on the fitted dose curve at most 10% of control; inactive means the rest.

Test system: 254851-301-R-J1-PDC spheroids, viability % test/control
Assay: Anticancer human tumor 254851-301-R-J1-PDC patient-derived colon carcinoma cell line growth inhibition [TAK]
Details: spheroids with HUVEC and MSC; for pIC50: curve of first compound; for viability, T/C: stronger effect = lower value
Text: Combinatorial screen of targeted agents with TAK-243 and ipatasertib in multi-cell type tumor spheroids
A high-throughput screen of multi-cell type tumor spheroids was designed to identify active combinations of targeted small molecules and TAK-243 or ipatasertib. Complex spheroids include a stromal component modeled by human endothelial cells (HUVEC) and fibroblasts modeled by human mesenchymal stem cells (MSCs). The concentration ranges selected for each drug and investigational agent were based upon clinically achievable concentrations if the clinical Cmax of the agent was known.
Compounds. The drugs and investigational agents: TAK-243 (785004), ipatasertib (767898), everolimus (733504), selumetinib (741078), bortezomib (756655), trametinib (758246), ixazomib (758254), vemurafenib (761431), dabrafenib (764134), sapanisertib (764658), alpelisib (765974), and copanlisib (816437), were obtained from the National Cancer Institute (NCI) Developmental Therapeutics Program Chemical Repository. The FDA-approved anticancer drug set is available from the NCI Developmental Therapeutics Program. […] The stock solutions were prepared in dimethyl sulfoxide (DMSO, Sigma-Aldrich, St. Louis, MO, cat. D2650) at 800-fold the tested concentration and stored at -70 degrees C prior to their use. All drugs and investigational agents were tested over a range starting from a high concentration at or near the clinical Cmax and decreasing in half-log increments. If the clinical Cmax for an agent had not been determined, the highest concentration tested was 10 microM.
NCI60 Cell Culture. NCI60 cell lines were obtained from the NCI Developmental Therapeutics Program Tumor Repository. For each lot of cells, the Repository performed Applied Biosystems AmpFLSTR Identifiler testing with PCR amplification to confirm consistency with the published Identifier STR profile for each cell line. Cells were kept in continuous culture for no more than 20 passages. The optimal seeding densities for each of the cell lines at each time point assessed were determined prior to performing the concentration response studies. Briefly, the NCI60 human tumor lines were grown as monolayers in RPMI 1640 medium supplemented with 10% FBS and 2 mmol/L L-glutamine.
An additional 2 lines were from the NCI60 cell line panel including melanomas, MALME-3M and SK-MEL-2. Pooled donor human umbilical vein endothelial cells (HUVEC, Lonza, cat. CC-2519) and human mesenchymal stem cells (hMSC, Lonza, cat. PT-2501) were purchased from Lonza (Walkersville, MD).
PDMR cell lines were grown in complete medium (DC medium): Dulbecco's modified Eagle's medium (DMEM)/F12 supplemented with 5% fetal bovine serum (FBS), 2 mM L-glutamine, 100 U/mL penicillin and 100 µg/ml streptomycin, 0.4 µg/ml hydrocortisone, 10 ng/ml epidermal growth factor (EGF) recombinant human protein, 24 µg/mL adenine, and 0.1 mg/mL primocin. During culture from frozen stock vials, PDMR cells were cultured in the same medium containing 10 µM Y-27632 (see Table 3). The PDCs were cultured in complete DMEM/F12 media without 10 microM Y-27632 dihydrochloride for at least two passages prior to the screen. The pooled donor HUVEC and hMSC were cultured in endothelial cell growth medium 2 (PromoCell, Heidelberg, Germany, cat. C-22011) and mesenchymal stem cell growth medium 2 (PromoCell, cat. C-28009), respectively. For all experiments, HUVEC and hMSC were used at passages </=5.
For the pre-screen, cell seeding densities were determined from a titration spanning the range from 5,000 to 313 cells per well. The mct-spheroids including 60% malignant cells, 25% HUVEC and 15% MSC dispensed as a mixture into U-bottom Ultra-Low Attachment 384-well plates (Corning, NY)
High-throughput Drug Combination Screening.
Prior to their inoculation into 384-well plates, malignant cells, HUVEC, and hMSC were removed from T flasks using TrypLE express (Thermo Fisher Scientific, cat. 12605036) and harvested by centrifugation for 5 min at 233 x g. […]
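Wherever pIC50 is given: spheroids exposed to drugs for seven days before viability readout.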
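Wherever viability, T/C is given: spheroids exposed to drugs for seven days before viability readout.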

Compound: CC(=O)Nc1cccc(-n2c(=O)n(C3CC3)c(=O)c3c(Nc4ccc(I)cc4F)n(C)c(=O)c(C)c32)c1 + CC(C)NCC(C(=O)N1CCN(c2ncnc3c2C(C)CC3O)CC1)c1ccc(Cl)cc1
- pIC50 (second compound 0.3 µM): 7.75
- pIC50 (second compound 0.949 µM): 7.75
- pIC50 (second compound 3 µM): 7.73
- pIC50 (second compound 9.49 µM): 7.76
- pIC50 (second compound 30 µM): 7.90
- viability, T/C (second compound 0.3 µM, first compound 94.9 pM): 115%
- viability, T/C (second compound 0.3 µM, first compound 0.0003 µM): 109%
- viability, T/C (second compound 0.3 µM, first compound 0.000949 µM): 108%
- viability, T/C (second compound 0.3 µM, first compound 0.003 µM): 116%
- viability, T/C (second compound 0.3 µM, first compound 0.00949 µM): 95.7%
- viability, T/C (second compound 0.3 µM, first compound 0.03 µM): 11%
- viability, T/C (second compound 0.949 µM, first compound 94.9 pM): 111%
- viability, T/C (second compound 0.949 µM, first compound 0.0003 µM): 110%
- viability, T/C (second compound 0.949 µM, first compound 0.000949 µM): 111%
- viability, T/C (second compound 0.949 µM, first compound 0.003 µM): 102%
- viability, T/C (second compound 0.949 µM, first compound 0.00949 µM): 88.5%
- viability, T/C (second compound 0.949 µM, first compound 0.03 µM): 17.4%
- viability, T/C (second compound 3 µM, first compound 94.9 pM): 106%
- viability, T/C (second compound 3 µM, first compound 0.0003 µM): 107%
- viability, T/C (second compound 3 µM, first compound 0.000949 µM): 110%
- viability, T/C (second compound 3 µM, first compound 0.003 µM): 116%
- outcome (second compound 3 µM, first compound 0.00949 µM): inactive
- viability, T/C (second compound 3 µM, first compound 0.03 µM): 9.28%
- viability, T/C (second compound 9.49 µM, first compound 94.9 pM): 94.7%
- viability, T/C (second compound 9.49 µM, first compound 0.0003 µM): 114%
- viability, T/C (second compound 9.49 µM, first compound 0.000949 µM): 106%
- viability, T/C (second compound 9.49 µM, first compound 0.003 µM): 108%
- viability, T/C (second compound 9.49 µM, first compound 0.00949 µM): 97.7%
- viability, T/C (second compound 9.49 µM, first compound 0.03 µM): 6.45%
- viability, T/C (second compound 30 µM, first compound 94.9 pM): 81.1%
- viability, T/C (second compound 30 µM, first compound 0.0003 µM): 96.6%
- viability, T/C (second compound 30 µM, first compound 0.000949 µM): 97.3%
- viability, T/C (second compound 30 µM, first compound 0.003 µM): 81.4%
- viability, T/C (second compound 30 µM, first compound 0.00949 µM): 65.3%
- viability, T/C (second compound 30 µM, first compound 0.03 µM): 2.95%

Compound: CC(C)CC(NC(=O)C(Cc1ccccc1)NC(=O)c1cnccn1)B(O)O (stereo not given) + CC(C)NCC(C(=O)N1CCN(c2ncnc3c2C(C)CC3O)CC1)c1ccc(Cl)cc1
- pIC50 (second compound 0.3 µM): < 8.00
- pIC50 (second compound 0.949 µM): < 8.00
- pIC50 (second compound 3 µM): < 8.00
- pIC50 (second compound 9.49 µM): < 8.00
- pIC50 (second compound 30 µM): < 8.00
- viability, T/C (second compound 0.3 µM, first compound 31.6 pM): 118%
- viability, T/C (second compound 0.3 µM, first compound 0.0001 µM): 124%
- viability, T/C (second compound 0.3 µM, first compound 0.000316 µM): 109%
- viability, T/C (second compound 0.3 µM, first compound 0.001 µM): 112%
- viability, T/C (second compound 0.3 µM, first compound 0.00316 µM): 103%
- viability, T/C (second compound 0.3 µM, first compound 0.01 µM): 79.9%
- viability, T/C (second compound 0.949 µM, first compound 31.6 pM): 112%
- viability, T/C (second compound 0.949 µM, first compound 0.0001 µM): 114%
- viability, T/C (second compound 0.949 µM, first compound 0.000316 µM): 101%
- viability, T/C (second compound 0.949 µM, first compound 0.001 µM): 107%
- viability, T/C (second compound 0.949 µM, first compound 0.00316 µM): 103%
- viability, T/C (second compound 0.949 µM, first compound 0.01 µM): 87.9%
- viability, T/C (second compound 3 µM, first compound 31.6 pM): 108%
- viability, T/C (second compound 3 µM, first compound 0.0001 µM): 114%
- viability, T/C (second compound 3 µM, first compound 0.000316 µM): 110%
- viability, T/C (second compound 3 µM, first compound 0.001 µM): 109%
- viability, T/C (second compound 3 µM, first compound 0.00316 µM): 111%
- viability, T/C (second compound 3 µM, first compound 0.01 µM): 86.6%
- viability, T/C (second compound 9.49 µM, first compound 31.6 pM): 106%
- viability, T/C (second compound 9.49 µM, first compound 0.0001 µM): 110%
- viability, T/C (second compound 9.49 µM, first compound 0.000316 µM): 112%
- viability, T/C (second compound 9.49 µM, first compound 0.001 µM): 104%
- viability, T/C (second compound 9.49 µM, first compound 0.00316 µM): 99%
- viability, T/C (second compound 9.49 µM, first compound 0.01 µM): 81.4%
- viability, T/C (second compound 30 µM, first compound 31.6 pM): 90.3%
- viability, T/C (second compound 30 µM, first compound 0.0001 µM): 98.9%
- viability, T/C (second compound 30 µM, first compound 0.000316 µM): 94.4%
- viability, T/C (second compound 30 µM, first compound 0.001 µM): 89%
- viability, T/C (second compound 30 µM, first compound 0.00316 µM): 85.7%
- viability, T/C (second compound 30 µM, first compound 0.01 µM): 71%
